The target in assay [1] is T1, Adenosylmethionine-8-amino-7-oxononanoate aminotransferase (Mycobacterium tuberculosis, UniProt P9WQ81).
T1 sequence (P9WQ81 whole entry): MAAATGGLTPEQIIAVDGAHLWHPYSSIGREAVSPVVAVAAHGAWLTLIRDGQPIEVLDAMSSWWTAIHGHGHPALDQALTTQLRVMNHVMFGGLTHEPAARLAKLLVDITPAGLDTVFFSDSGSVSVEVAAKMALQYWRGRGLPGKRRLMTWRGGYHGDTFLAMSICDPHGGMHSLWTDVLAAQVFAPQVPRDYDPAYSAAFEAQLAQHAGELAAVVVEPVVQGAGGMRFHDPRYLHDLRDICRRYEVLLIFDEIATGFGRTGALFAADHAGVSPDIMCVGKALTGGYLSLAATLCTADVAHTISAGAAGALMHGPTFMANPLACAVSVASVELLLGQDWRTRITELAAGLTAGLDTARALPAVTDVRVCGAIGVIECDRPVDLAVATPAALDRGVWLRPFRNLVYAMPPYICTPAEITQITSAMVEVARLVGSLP
The experiment in a line: Mycobacterium tuberculosis BioA enzyme inhibitor Measured in Biochemical System Using Plate Reader - 2163-02_Inhibitor_Dose_CherryPick_Activity. Type of assay: functional, Mycobacterium tuberculosis UT205.

Assay [2] addresses T2, DNA repair and recombination protein RAD54-like (Homo sapiens, UniProt Q92698).
T2 sequence (Q92698 whole entry): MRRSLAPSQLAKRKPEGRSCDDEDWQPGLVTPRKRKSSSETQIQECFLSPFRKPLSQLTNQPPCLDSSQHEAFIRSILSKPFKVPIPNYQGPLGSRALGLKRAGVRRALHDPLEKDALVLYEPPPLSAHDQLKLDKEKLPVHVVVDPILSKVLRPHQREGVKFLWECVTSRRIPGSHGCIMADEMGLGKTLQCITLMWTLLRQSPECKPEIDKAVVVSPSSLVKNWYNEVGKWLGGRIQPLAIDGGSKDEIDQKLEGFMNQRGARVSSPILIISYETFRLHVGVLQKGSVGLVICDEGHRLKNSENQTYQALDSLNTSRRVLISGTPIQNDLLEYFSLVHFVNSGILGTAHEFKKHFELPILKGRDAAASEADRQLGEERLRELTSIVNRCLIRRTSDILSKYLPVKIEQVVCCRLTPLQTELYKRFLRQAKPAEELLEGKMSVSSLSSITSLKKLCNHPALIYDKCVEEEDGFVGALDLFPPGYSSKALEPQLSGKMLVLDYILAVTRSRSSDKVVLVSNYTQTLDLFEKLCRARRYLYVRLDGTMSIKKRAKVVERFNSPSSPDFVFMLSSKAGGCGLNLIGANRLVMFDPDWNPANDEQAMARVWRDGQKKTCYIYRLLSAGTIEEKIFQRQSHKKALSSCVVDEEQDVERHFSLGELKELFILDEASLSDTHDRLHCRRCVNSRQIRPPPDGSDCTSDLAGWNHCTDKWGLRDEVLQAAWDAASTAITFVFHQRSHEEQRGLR
The experiment in a line: inhibitors of human RAD54 branch migration, confirmation, biochemical, fluorescence, cherry-picked samples, dose series (AID 651657). Type of assay: functional.

Assay [3] has as its target T3, DNA repair protein RAD52 homolog (Homo sapiens, UniProt P43351).
T3 sequence (P43351 whole entry): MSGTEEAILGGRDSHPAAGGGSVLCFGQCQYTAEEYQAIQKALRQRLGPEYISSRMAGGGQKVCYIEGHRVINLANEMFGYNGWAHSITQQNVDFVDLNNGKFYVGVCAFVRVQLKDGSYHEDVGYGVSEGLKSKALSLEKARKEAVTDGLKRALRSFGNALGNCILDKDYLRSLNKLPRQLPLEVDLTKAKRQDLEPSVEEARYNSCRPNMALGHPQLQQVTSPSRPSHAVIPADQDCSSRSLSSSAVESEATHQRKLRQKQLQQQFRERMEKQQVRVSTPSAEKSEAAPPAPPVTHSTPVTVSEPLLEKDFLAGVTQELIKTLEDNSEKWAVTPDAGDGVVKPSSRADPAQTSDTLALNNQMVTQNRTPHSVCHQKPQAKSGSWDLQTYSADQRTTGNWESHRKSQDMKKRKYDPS
Format: functional, biochemical.

The next assay deals with Mu-type opioid receptor (Homo sapiens, UniProt P35372). Format: functional, cell-based.
Mu-type opioid receptor, sequence (P35372 whole entry): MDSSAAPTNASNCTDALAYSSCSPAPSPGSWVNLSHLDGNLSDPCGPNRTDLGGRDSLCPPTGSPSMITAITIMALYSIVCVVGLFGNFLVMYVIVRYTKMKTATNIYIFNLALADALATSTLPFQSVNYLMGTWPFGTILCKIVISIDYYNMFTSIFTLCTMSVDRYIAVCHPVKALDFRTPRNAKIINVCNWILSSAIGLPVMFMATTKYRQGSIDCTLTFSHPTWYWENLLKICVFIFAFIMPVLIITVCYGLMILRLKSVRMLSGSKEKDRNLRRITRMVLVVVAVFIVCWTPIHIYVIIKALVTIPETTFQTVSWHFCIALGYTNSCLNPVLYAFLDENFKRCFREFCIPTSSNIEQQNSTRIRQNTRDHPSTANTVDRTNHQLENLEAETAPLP
For assay [4], the target named is 5-hydroxytryptamine receptor 2A (Mus musculus, UniProt P35363). Type of assay: functional, cell-based.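 Also: CHO-K1 cells with tagged receptor and beta-arrestin; agonist potency measured as compound-induced activation of the receptor.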
5-hydroxytryptamine receptor 2A, sequence (P35363 whole entry): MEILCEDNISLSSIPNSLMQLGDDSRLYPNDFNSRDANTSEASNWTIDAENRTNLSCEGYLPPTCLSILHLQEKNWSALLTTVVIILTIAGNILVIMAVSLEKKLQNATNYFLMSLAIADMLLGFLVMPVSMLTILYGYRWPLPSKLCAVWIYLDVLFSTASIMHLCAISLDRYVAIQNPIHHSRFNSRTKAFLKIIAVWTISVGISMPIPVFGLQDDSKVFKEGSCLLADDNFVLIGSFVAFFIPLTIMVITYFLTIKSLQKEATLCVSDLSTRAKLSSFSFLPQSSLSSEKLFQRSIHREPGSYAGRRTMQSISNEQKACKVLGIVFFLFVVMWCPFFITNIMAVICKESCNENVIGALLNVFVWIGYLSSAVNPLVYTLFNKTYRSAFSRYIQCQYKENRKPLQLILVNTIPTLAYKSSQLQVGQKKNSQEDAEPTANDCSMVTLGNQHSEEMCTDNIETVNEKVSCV
A short description of another assay: cells. Type of assay: functional, cell-based.
The target of assay [5] is T4, Nuclear receptor subfamily 0 group B member 1 (Homo sapiens, UniProt P51843).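 Also: HEK293T cells transfected with SF-1 and DAX-1 plus StAR promoter luciferase reporter.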
T4 sequence (P51843 whole entry): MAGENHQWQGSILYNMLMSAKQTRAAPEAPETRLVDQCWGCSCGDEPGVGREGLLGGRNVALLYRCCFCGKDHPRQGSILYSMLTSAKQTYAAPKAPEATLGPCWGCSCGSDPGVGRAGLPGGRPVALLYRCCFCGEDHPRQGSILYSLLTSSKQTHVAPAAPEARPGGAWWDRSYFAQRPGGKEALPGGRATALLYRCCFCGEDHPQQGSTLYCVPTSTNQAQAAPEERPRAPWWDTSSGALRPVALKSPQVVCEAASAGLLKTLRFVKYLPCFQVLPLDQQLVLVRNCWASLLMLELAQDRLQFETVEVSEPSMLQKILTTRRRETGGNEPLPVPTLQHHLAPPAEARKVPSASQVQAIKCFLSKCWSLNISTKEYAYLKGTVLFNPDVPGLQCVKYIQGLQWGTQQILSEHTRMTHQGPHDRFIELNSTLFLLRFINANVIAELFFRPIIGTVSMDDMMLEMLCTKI
Type of assay: functional, cell-based.

A further assay deals with Fatty acid synthase (Homo sapiens, UniProt P49327). The experiment in a line: FAS thioesterase domain inhibitors, dose response, biochemical, kinetic fluorescence intensity (AID 624326).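 Also: rate of fluorescence rise from hydrolysis of a fluorogenic O-methyl fluorescein ester substrate.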 Type of assay: functional.
In assay [6] the target is Voltage-dependent T-type calcium channel subunit alpha-1H (Homo sapiens, UniProt O95180). Type of assay: functional.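 Also: channel activity triggered by adding a high calcium stimulation buffer.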
Assay [7] deals with Potassium voltage-gated channel subfamily KQT member 2 (Rattus norvegicus, UniProt O88943). The experiment in a line: KCNQ2 potassium channel inhibitors, dose response, cell-based, automated electrophysiology, set II, rat KCNQ2 (AID 588637). Format: functional.
Potassium voltage-gated channel subfamily KQT member 2, sequence (O88943 whole entry): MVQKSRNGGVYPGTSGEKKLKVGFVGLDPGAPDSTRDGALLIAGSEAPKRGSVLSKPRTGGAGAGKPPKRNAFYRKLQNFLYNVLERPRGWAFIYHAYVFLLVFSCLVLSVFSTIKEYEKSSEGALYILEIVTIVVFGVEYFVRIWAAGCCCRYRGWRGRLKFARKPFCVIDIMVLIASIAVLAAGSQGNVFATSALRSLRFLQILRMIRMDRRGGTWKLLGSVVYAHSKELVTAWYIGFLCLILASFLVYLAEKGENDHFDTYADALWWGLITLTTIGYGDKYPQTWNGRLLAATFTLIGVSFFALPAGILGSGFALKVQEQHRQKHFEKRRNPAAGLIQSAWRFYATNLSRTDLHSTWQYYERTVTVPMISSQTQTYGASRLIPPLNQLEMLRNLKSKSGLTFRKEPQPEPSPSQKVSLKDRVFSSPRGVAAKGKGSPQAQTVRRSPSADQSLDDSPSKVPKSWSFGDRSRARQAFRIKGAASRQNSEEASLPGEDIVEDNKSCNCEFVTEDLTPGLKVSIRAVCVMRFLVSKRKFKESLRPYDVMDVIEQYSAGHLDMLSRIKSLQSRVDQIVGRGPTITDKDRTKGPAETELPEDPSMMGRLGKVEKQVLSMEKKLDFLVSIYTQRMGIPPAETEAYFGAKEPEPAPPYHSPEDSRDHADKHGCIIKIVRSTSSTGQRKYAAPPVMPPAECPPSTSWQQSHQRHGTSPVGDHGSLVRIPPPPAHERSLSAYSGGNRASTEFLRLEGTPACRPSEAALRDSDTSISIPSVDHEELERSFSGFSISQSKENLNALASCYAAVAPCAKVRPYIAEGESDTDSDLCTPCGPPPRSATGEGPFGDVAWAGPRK
A further assay deals with Melanocortin receptor 4 (Homo sapiens, UniProt P32245). Type of assay: functional, cell-based.
Melanocortin receptor 4, sequence (P32245 whole entry): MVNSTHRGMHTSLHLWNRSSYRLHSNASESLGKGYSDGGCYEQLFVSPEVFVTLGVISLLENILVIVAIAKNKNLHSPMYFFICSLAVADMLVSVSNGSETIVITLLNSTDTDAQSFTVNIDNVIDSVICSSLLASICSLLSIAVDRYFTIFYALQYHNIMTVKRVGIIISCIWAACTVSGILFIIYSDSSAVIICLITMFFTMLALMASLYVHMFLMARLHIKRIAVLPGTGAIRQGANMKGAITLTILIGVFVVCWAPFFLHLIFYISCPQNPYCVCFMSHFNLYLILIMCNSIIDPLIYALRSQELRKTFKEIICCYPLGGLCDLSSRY
The target in assay [8] is T5, Kappa-type opioid receptor (Homo sapiens, UniProt P41145). Format: functional.
T5 sequence (P41145 whole entry): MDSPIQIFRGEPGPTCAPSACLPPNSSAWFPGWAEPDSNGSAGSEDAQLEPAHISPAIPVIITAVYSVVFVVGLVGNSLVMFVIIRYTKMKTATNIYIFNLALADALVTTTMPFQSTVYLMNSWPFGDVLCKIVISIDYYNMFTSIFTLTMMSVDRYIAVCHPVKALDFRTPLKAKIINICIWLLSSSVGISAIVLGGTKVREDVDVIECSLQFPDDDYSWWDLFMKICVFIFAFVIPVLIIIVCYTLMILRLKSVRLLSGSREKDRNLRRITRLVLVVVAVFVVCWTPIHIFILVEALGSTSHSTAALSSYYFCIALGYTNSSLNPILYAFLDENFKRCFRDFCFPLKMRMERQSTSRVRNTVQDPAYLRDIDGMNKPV
In the next assay the target is Beta-galactosidase (Escherichia coli, UniProt Q8VNN2). Type of assay: functional.
Beta-galactosidase, sequence (Q8VNN2 whole entry): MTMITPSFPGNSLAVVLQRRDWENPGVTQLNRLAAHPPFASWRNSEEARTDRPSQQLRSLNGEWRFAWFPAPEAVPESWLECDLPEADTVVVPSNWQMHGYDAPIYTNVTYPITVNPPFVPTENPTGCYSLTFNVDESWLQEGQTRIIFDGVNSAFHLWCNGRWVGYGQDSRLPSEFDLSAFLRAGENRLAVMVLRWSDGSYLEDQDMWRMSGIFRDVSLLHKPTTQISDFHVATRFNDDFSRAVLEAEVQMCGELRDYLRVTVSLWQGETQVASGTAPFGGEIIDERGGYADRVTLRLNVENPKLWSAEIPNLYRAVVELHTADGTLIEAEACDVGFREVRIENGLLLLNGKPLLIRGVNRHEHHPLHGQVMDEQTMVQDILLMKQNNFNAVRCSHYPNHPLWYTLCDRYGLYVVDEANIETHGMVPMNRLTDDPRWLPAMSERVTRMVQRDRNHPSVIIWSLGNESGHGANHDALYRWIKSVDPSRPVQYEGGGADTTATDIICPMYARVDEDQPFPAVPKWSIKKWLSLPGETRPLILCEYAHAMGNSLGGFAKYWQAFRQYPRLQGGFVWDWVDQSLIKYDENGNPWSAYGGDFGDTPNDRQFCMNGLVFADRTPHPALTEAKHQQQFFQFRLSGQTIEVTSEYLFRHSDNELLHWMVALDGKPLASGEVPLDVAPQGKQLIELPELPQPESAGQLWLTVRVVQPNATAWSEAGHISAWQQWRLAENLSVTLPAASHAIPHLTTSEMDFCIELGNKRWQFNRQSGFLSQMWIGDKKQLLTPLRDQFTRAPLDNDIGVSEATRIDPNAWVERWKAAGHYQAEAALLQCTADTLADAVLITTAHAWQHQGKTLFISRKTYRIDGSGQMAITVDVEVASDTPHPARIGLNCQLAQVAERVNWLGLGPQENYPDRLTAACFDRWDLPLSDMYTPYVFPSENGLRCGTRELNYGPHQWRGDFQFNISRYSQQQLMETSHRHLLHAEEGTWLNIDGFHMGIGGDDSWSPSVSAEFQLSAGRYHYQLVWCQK
In assay [9] the target is T5, Kappa-type opioid receptor. Format: functional. The source holds these as a separate data set.
Assay [10] deals with Vero. Put plainly: cells. Type of assay: functional. The following applies: Chlorocebus sabaeus.
Assay [11] concerns Vero. Put plainly: cells. Format: functional, cell-based. The following applies: Chlorocebus sabaeus.
Assay [12] in a line: inhibitors of PGC1a acetylation in cells, dose response, cell-based, cherry-picked samples (AID 720514).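 Also: potency may reflect raised or lowered acetylation signal.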 Format: functional.
Assay [13] can be described thus: Luminescence Cell-Based Dose Retest to Confirm Inhibitors of Cancer Stem Cells. [Related pubchem assays (depositor defined):AID2717, AID2721]. The following applies: Homo sapiens. Format: functional.
A further assay deals with INS1. The experiment in a line: beta cell apoptosis inhibitors, cytokine rescue, dose response, luminescence, retest (AID 449756).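 Also: cell death triggered by IL-1 beta plus TNF-alpha plus IFN-gamma mixture; protective hits raise ATP signal compared with cytokine alone wells.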 Format: functional, cell-based. The following applies: Rattus norvegicus.
Assay [14] deals with T6, Low molecular weight phosphotyrosine protein phosphatase (Homo sapiens, UniProt P24666).
T6 sequence (P24666 whole entry): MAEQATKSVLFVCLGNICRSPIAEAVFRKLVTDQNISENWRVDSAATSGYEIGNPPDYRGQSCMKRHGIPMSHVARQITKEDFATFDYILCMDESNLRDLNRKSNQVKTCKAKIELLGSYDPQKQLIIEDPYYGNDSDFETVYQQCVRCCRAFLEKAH
Type of assay: functional. The following applies: read-out: IC50_Mean.

The nature of assay [15]: A549 cell cytotoxicity, dose response, cytotoxicity control, plate reader, cherry-pick, antagonist series (AID 743412). Format: functional, cell-based.
Assay [16] is described as follows: HepG2 cell cytotoxicity, dose response, cytotoxicity control, plate reader, cherry-pick, antagonist series (AID 743416). Format: functional, cell-based.
The nature of assay [17]: LGR2 antagonists, dose response, cell-based, HEK293, CRE-luciferase reporter, cherry pick, set 2 (AID 743343).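 Also: transfected cells were stimulated with diluted bursicon conditioned medium after compound addition.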 Format: functional.
Assay [18] in a line: MC4R antagonists, dose response, counter-screen for LGR2 antagonist project, cell-based, plate reader, cherry pick (AID 743444).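 Also: transfected HEK 293 cells stimulated with alpha-MSH peptide; potency of inhibitors of the alpha-MSH evoked signal.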 Format: functional.
Assay [19] is described as follows: HEK293 cell cytotoxicity, dose response, cytotoxicity control, plate reader, cherry-picked samples (AID 743446). Type of assay: functional, cell-based.

Structures are written as SMILES. pIC50: −log10 of the molar value. Calls of active or inactive are those of the source. A value given as a limit tells only on which side of the number the result lay.
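For IC50 Mean in this document: Dose-response confirmation assay measuring inhibition of LMPTP enzyme activity by fluorescence intensity read-out.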

For the molecule `CC(=O)c1ccc(C(=O)N2CCCC(Nc3ccccc3)C2)s1` (configuration not stated), the AC50 in assay [1] was 5.18 µM (active).
For the molecule `O=C(NCc1ccco1)c1ccc(-c2ccc3nccn3c2)cc1`, in [1], the AC50 is 1.64 µM (active).
As for `COc1ccc(Cc2c(-c3ccc(OC)c(OC)c3)nc3c(C)cc(Br)cn23)c(C)c1`, the AC50 in assay [1] is 6.62 µM (active); in [2], 14.8 µM (active); in assay [3], 15.5 µM (active).
As to `Nc1n[nH]c(N2CCN(Cc3ccccc3)CC2)n1`, the EC50 at Mu-type opioid receptor is 92.5 µM (inactive); in [4], 5.59 µM (active).
Turning to `COc1cccc(/C=C/C(=O)NNC(=O)c2ccccc2)c1OC`, the IC50 (in the assay “cells”; in assay [5]) was > 67.6 µM (inactive) each time.
For the molecule `O=C(CC(c1ccccc1)c1ccccc1)NCC(O)c1ccc([N+](=O)[O-])cc1` (configuration not stated), the IC50 on Fatty acid synthase was 13.5 µM (active).
Take `Cc1cccc(-c2nc(CN3CCCC(C(=O)NC4CCCCCC4)C3)c(C)o2)c1` (configuration not stated): the EC50 in assay [6] is 5.56 µM (active). For the same molecule, the IC50 in [7] is 7.19 µM (active).
With `Cn1c(C(=O)N2CCc3ccccc3C2)cc2oc3ccccc3c21`, the IC50 in assay [7] was 6.99 µM (active).
As to `N#C/C(=C\c1cn(CCOc2ccccc2)c2ccccc12)C(=O)NCc1ccco1`, the EC50 on Melanocortin receptor 4 was > 89.2 µM (inactive).
As for `OC[C@H]1O[C@H](c2nc(-c3nc(-c4cccs4)no3)cs2)C[C@@H]1O`, the IC50 (in the assay “cells”; in [5]) was > 67.5 µM (inactive) in each case.
Regarding `CC(=O)Nc1cc(-c2cccc(NS(C)(=O)=O)c2)cn2c(-c3ccccc3)cnc12`, at Melanocortin receptor 4, the EC50 is > 89.2 µM (inactive).
As to `Cc1nn(-c2ccccc2)c(O)c1/C=N/N1C(=O)c2cccc3cccc(c23)C1=O`, in assay [8], the IC50 is 10.3 µM (active). For the same molecule, the EC50 at Beta-galactosidase was > 31.5 µM (inactive). This molecule showed a pIC50 in [9] of under 4.49. Further, in the assay with Vero [10], the CC50 is > 25 µM (active).
Take `CCSc1nnc(NC(=O)c2csc3c2CCCC3)s1`: the EC50 on Melanocortin receptor 4 was > 89.2 µM (inactive).
For `Nc1nc(CN2CCN(c3ccccn3)CC2)nc(Nc2ccc(Cl)cc2)n1`, the EC50 was 92.5 µM (inactive) at Mu-type opioid receptor and 1.51 µM (active) in [4].
For `Cc1ccc(-n2ncc3c(SCc4ccccn4)ncnc32)c(C)c1`, the IC50 with Vero [11] is 1.6 µM (active). In the assay with Vero [10], the CC50 was > 25 µM (active).
Take `COc1ccc(-n2nc(C#N)c(Cl)cc2=O)cc1`: in [8], the IC50 is 7.21 µM (active). In addition, the EC50 on Beta-galactosidase was > 31.5 µM (inactive). The molecule further showed a pIC50 in [9] of 4.85. Also, in assay [12], the AC50 is 3.52 µM (active).
With `O=C(Nc1ccc(Cl)cc1)Nc1nnc(-c2ccncc2)s1`, the AC50 is 1.17 µM (active) in assay [13]; 3.54 µM (active) in the assay with INS1; 15.5 µM (active) in assay [15]; 5.88 µM (active) in assay [16]; 3.51 µM (active) in assay [17]; 1.74 µM (active) in assay [18]. Besides, in assay [19], the AC50 is 2.98 µM (active). In addition, the IC50 in assay [14] was 30.6 µM (inactive).
Take `Clc1ccccc1CN1CCN(c2ccccc2)CC1`: the EC50 at Mu-type opioid receptor is 92.5 µM (inactive); in assay [4], 0.553 µM (active).
In the case of `O=C(c1ccc(C[S+]([O-])c2ccccc2Cl)o1)N1CCN(C2CCCCC2)CC1` (configuration not stated), the IC50 (in “cells”; in [5]) was > 67.5 µM (inactive) throughout.

(Values after ChEMBL document CHEMBL1201862, “PubChem BioAssay data set” (2004).)
